Active and inactive are the calls of the source.
Columns and labels:
[1] = Luminescence Cell-Based Dose Response HTS to Identify Activators of Luciferase Translation or Activity in H4 […] Cells. [Related pubchem assays: 1829 (Project Summary), 1814 (Primary HTS)]; type: functional
[2] = Luminescence Cell-Based Dose Confirmation HTS to Identify Activators of 5'UTR Stem-Loop Driven Alpha-Synuclein mRNA Translation in H4 Neuroglioblastoma Cells. [Related pubchem assays: 1829 (Project Summary), 1814 (Primary HTS)]; type: functional
[3] = A549 cell cytotoxicity, dose response, cytotoxicity control, plate reader, cherry-pick, antagonist series (AID 743412); type: functional, cell-based
[4] = blockers of bursicon-stimulated LGR2 cAMP reporter – cell-based, HEK293, CRE-luciferase reporter, cherry pick, set 2, dose response (AID 743343); type: functional;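 further: transfected cells were stimulated with diluted bursicon conditioned medium after compound addition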
Protein RecA = molecular target: T1, Protein RecA (Mycobacterium tuberculosis, UniProt P9WHJ3); experiment: Fluorescence Cell-Free Homogeneous Dose Retest to Identify Inhibitors of RecA-Intein Splicing Activity. [Related pubchem assays (depositor defined):AID2097, AID2223, AID489010, AID492950]; type: functional
T1 sequence (P9WHJ3 whole entry): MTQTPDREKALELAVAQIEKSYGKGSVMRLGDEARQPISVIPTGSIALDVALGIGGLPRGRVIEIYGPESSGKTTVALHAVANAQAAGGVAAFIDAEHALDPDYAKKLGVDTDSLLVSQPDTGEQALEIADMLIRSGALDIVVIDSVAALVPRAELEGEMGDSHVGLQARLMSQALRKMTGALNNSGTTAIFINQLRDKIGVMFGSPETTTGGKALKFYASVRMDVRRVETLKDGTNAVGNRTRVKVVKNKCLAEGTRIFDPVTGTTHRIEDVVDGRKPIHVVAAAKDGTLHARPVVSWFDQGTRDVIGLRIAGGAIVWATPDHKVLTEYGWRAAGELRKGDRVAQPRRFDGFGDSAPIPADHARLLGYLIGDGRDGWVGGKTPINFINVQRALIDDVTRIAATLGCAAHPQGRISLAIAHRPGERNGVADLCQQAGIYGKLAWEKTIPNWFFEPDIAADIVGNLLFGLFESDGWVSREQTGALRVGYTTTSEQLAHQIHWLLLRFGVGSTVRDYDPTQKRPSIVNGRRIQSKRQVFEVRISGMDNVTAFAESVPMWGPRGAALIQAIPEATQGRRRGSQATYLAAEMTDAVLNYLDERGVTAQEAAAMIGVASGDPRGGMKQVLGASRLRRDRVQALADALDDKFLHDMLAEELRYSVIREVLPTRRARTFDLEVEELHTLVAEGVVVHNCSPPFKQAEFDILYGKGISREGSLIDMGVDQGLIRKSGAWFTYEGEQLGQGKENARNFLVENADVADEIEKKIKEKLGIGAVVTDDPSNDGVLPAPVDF

[5] = blockade of melanocortin 4 receptor signaling – cell-based, plate reader, cherry pick, counter-screen for LGR2 antagonist project, dose response (AID 743444); type: functional;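 further: transfected HEK 293 cells stimulated with alpha-MSH peptide; potency of inhibitors of the alpha-MSH evoked signal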
[6] = reduced cellular PGC1a acetyl-lysine signal – cell-based, cherry-picked samples, dose response (AID 720514); type: functional;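 further: potency may reflect raised or lowered acetylation signal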
[7] = Trypanosoma cruzi growth suppression in host cells – NIH3T3 host cells, beta-gal luminescence, confirmation (AID 2044); type: functional, cell-based;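 further: intracellular parasites grown in NIH/3T3 mouse fibroblasts as host cells; luminescent beta-galactosidase reporter signal from transgenic T. cruzi replicating inside host cells; inhibitors lower the luminescence signal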
H4 = experiment: Luminescence Cell-Based Dose Response HTS to Identify Activators of 5'UTR Stem-Loop Driven Prion Protein mRNA Translation in H4 Neuroglioblastoma Cells. [Related pubchem assays: 1829 (Project Summary), 1814 (Primary HTS)]; type: functional; details: Homo sapiens
[8] = toxicity toward HepG2 liver cells – cell-based, plate reader, cherry-pick, antagonist series, cytotoxicity control, dose response (AID 743416); type: functional
[9] = viability loss in HEK293 cells – cell-based, plate reader, cherry-picked samples, cytotoxicity control, dose response (AID 743446); type: functional
[10] = molecular target: T2, Replicative DNA helicase DnaB (Mycobacterium tuberculosis, UniProt P9WMR3); experiment: DnaB intein splicing inhibitors, dose response, biochemical, cell-free fluorescence (AID 449749); type: functional
T2 sequence (P9WMR3 whole entry): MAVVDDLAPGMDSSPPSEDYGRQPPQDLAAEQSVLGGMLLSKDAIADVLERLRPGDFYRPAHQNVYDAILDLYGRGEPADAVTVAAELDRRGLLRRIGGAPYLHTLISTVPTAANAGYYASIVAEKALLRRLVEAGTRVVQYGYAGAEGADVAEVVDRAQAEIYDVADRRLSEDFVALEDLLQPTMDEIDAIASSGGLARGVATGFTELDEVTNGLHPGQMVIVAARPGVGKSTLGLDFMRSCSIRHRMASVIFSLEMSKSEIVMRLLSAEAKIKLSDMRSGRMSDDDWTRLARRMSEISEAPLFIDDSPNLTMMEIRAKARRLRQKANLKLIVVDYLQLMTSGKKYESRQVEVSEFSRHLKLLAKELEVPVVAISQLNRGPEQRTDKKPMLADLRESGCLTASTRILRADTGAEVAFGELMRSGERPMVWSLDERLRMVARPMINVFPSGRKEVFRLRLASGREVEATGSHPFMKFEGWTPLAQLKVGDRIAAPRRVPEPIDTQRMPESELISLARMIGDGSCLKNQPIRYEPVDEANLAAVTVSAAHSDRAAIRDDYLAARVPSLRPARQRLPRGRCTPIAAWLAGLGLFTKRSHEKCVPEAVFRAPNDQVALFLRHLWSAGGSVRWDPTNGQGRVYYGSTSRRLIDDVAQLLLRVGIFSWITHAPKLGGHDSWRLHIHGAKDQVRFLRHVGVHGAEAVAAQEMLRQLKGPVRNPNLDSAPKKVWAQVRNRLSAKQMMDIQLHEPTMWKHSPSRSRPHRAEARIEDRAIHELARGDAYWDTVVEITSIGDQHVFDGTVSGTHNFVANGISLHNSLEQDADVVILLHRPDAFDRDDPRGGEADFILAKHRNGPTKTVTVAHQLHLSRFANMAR

[11] = NIH3T3 cell viability loss – ATP luminescence, mouse fibroblasts, counter-screen, dose response (AID 2010); type: functional, cell-based;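 further: cells exposed to compound for about 90 hours before reading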
[12] = molecular target: T3, Rac GTPase-activating protein 1 (Homo sapiens, UniProt Q9H0H5); experiment: blockers of MgcRacGAP-driven Rac1 GTP hydrolysis – biochemical, ADP Hunter fluorescence, primary and confirmatory, confirmation (AID 624330); type: functional
T3 sequence (Q9H0H5 whole entry): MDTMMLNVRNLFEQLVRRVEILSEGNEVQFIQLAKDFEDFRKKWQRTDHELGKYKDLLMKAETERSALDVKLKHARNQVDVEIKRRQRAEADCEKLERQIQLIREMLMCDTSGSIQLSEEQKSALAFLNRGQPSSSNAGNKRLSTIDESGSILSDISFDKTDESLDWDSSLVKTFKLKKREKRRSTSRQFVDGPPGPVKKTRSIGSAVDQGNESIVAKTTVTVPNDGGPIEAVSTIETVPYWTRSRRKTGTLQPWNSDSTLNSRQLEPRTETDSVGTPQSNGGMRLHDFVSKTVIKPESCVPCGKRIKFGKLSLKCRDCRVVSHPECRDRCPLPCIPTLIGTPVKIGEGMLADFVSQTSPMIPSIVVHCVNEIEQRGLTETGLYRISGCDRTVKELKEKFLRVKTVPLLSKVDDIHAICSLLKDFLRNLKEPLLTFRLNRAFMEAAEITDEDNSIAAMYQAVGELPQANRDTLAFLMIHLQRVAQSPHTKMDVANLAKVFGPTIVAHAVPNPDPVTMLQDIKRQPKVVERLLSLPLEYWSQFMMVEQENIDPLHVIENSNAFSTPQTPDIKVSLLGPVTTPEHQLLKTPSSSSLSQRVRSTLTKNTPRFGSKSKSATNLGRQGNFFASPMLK

[13] = viability loss in HeLa cells – cytotoxicity control for MgcRacGAP inhibitor project, dose response (AID 624300); type: functional
BJ [14] = experiment: BJ-TERT-LT-ST fibroblast viability loss – cell-based, RAS-independent, luminescence, dose response (AID 1935); type: functional; details: Homo sapiens;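 further: BJ fibroblasts immortalized with TERT plus LT and ST oncogenes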
BJ [15] = experiment: BJ-TERT fibroblast viability loss – cell-based, RAS-independent, luminescence, dose response (AID 1933); type: functional; details: Homo sapiens
[16] = DRD fibroblast viability loss – cell-based, non-viral oncogenic, luminescence, dose response (AID 1934); type: functional; details: Homo sapiens
BJ [17] = experiment: cells; type: functional, cell-based; details: Homo sapiens
[18] = molecular target: T4, DNA repair and recombination protein RAD54-like (Homo sapiens, UniProt Q92698); experiment: RAD54 Holliday junction migration blockers – biochemical, fluorescence, cherry-picked samples, dose series, confirmation (AID 651657); type: functional
T4 sequence (Q92698 whole entry): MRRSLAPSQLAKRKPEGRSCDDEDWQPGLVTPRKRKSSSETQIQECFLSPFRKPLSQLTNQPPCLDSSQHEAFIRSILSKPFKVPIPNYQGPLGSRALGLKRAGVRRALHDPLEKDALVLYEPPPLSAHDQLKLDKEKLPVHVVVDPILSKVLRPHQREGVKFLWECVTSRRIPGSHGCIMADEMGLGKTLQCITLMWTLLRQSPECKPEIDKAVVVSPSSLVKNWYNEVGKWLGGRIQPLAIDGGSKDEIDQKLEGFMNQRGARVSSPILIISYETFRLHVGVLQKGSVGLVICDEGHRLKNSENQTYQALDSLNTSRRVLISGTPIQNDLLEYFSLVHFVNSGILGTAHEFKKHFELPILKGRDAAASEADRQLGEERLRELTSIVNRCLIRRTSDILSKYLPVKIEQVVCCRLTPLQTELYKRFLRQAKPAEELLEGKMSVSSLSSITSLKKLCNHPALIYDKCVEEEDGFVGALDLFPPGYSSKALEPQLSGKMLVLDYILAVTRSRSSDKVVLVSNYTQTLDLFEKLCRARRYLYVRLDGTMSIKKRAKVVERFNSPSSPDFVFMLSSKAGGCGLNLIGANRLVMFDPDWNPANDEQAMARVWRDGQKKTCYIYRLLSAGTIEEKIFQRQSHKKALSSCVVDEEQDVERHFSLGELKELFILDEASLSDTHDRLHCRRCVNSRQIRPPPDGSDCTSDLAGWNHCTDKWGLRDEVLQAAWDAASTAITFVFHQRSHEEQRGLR

[19] = molecular target: T5, DNA repair protein RAD52 homolog (Homo sapiens, UniProt P43351); type: functional, biochemical
T5 sequence (P43351 whole entry): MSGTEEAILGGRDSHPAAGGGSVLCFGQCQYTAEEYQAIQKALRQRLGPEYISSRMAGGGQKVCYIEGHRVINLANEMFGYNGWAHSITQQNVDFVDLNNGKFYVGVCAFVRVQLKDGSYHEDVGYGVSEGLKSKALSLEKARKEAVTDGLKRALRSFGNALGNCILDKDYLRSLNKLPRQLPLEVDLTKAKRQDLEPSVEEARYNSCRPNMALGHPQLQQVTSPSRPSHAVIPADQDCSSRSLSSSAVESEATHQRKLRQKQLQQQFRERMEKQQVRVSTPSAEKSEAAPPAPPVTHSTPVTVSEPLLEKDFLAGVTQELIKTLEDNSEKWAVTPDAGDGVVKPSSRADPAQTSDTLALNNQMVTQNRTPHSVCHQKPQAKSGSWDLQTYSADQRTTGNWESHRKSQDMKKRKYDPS

[20] = off-target signal loss in HeLa-CEM21 co-culture – HeLa F-luc CTL cells, cherry-picked, counter-screen for HIV-1 Env fusion inhibitor project, dose response (AID 652040); type: functional, cell-based;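 further: potency for signal decrease marking cytotoxic or nonspecific inhibition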
[21] = blockers of HIV-1 ZM109 envelope-driven cell-cell fusion – HeLa effector, CEM target cells, luciferase, cherry-pick, dose response (AID 652058); type: functional, cell-based;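 further: luciferase signal from HIV-1 Env mediated cell-cell fusion of effector and target cells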
[22] = blockers of HIV-1 envelope-mediated cell-cell fusion – cherry-pick, dose response (AID 652057); type: functional, cell-based
[23] = HIV-1 AD8 envelope cell-cell fusion blockers – cherry-pick, dose response (AID 652062); type: functional, cell-based;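 further: luciferase signal from cell-cell fusion driven by HIV-1 clade B AD8 Env; potency is for inhibitors of fusion seen as a drop in luminescence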

O=c1c(Cl)c(Cl)cnn1Cc1nnc(-c2ccc(Cl)cc2)o1
EC50 [1]: > 120 µM (not active)
EC50 [2]: > 120 µM (not active)
AC50 [3]: 7.33 µM (active)
AC50 [4]: 25.3 µM (active)
EC50 (Protein RecA): 2.95 µM (active)
AC50 [5]: 30.9 µM (active)
AC50 [6]: 7.83 µM (active)
EC50 [7]: 1.15 µM (active)
EC50 (H4): > 120 µM (not active)
AC50 [8]: 8.01 µM (active)
AC50 [9]: 8.16 µM (active)
AC50 [10]: 9.97 µM (active)
EC50 [11]: 2.02 µM (active)

C=CCN(C(=O)C1CC(=O)N(C2CCCC2)C1)c1nc(-c2ccc(S(C)(=O)=O)cc2)cs1 (stereo not given)
AC50 [3]: 36.7 µM (active)
AC50 [4]: 25.8 µM (active)
AC50 [5]: 41.5 µM (active)
AC50 [8]: > 52 µM (inactive)
AC50 [9]: 30.1 µM (active)

CN(C)c1ccc2c(c1)C(=NO)c1ccccc1-2
IC50 [12]: 33.5 µM (active)
CC50 [13]: 100 µM (active)

C[N+](C)(C)CCC(=O)N1C/C(=C/c2ccccc2)C(=O)/C(=C\c2ccccc2)C1
IC50 [12]: 128 µM (active)
CC50 [13]: 100 µM (active)

Cn1cc(C(=O)N/N=C/c2ccc3c(c2)OCO3)c2ccccc21
EC50 [1]: 5.78 µM (active)
EC50 [2]: > 120 µM (not active)
EC50 (BJ [14]): > 150 µM (inconclusive)
EC50 (H4): 5.85 µM (active)
EC50 (BJ [15]): 124 µM (active)
EC50 [16]: 19.6 µM (active)
EC50 (BJ [17]): 44.9 µM (active)

CN1CCCN(c2cc(-c3ccc4ccccc4c3)nc3ccnn23)CC1
AC50 [18]: 8.49 µM (active)
AC50 [19]: 1.57 µM (active)

C[C@@H]1CNC(=O)c2c(C(=O)N(C)Cc3ccccc3)ncn21
AC50 [20]: 3.39 µM (active)
AC50 [21]: 4.8 µM (active)
AC50 [22]: 1.86 µM (active)
AC50 [23]: 3.68 µM (active)

— ChEMBL document CHEMBL1201862, “PubChem BioAssay data set” (2004)
